According to patent US9439906B2, “Dosing regimen associated with long acting injectable paliperidone esters” (Janssen Pharmaceutica NV, priority 2007, dated 2016):

Target: D2 receptor (Homo sapiens, UniProt P14416)
Test: PET central D2 occupancy studies SWE-1 and SIV-101
Assay type: in vivo
From the text: It has been empirically derived and is currently widely excepted that 65-70% occupancy is needed for antipsychotics to show clinical efficacy (Farde et al.), i.e. improvement on the PANSS scale. A too high occupancy (80-85%) will typically increase the risk to develop EPS. In order to determine the central D2 occupancy, PET trials in human healthy volunteers are typically performed.

Sequence of D2 receptor (P14416 whole entry): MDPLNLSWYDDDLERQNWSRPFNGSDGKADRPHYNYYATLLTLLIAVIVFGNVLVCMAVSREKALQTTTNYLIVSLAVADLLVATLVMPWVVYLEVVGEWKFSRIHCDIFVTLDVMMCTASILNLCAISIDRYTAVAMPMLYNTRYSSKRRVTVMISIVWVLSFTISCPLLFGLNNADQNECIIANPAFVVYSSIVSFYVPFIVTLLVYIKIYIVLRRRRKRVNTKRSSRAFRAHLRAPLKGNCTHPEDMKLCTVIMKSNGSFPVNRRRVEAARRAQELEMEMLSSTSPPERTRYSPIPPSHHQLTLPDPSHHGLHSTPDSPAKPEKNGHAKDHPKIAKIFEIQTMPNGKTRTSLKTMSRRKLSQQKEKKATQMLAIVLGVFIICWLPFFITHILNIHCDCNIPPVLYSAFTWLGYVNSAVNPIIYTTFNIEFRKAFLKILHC

## Cc1nc2n(c(=O)c1CCN1CCC(c3noc4cc(F)ccc34)CC1)CCCC2O (centres unmarked) [paliperidone, 9-hydroxy-risperidone]
  Kd: 10.3 to 15 nM
Calculated using the 65-85% D2 occupancy window
  exposure range for efficacy without an increased risk to develop EPS (target exposure range): 7.5 to 40 ng/mL
